Source: BigSolDB 2.1

N#CN=C(N)N
solubility (mole fraction)
Conditions | 283.15 K | 288.15 K | 293.15 K | 298.15 K | 303.15 K | 308.15 K | 313.15 K | 318.15 K | 323.15 K
in acetone | 0.00634 | 0.00658 | 0.00677 | 0.00754 | 0.00836 | 0.0102 | 0.0112 | 0.0133 | 0.0154
in acetonitrile | 0.00219 | 0.00226 | 0.00245 | 0.00273 | 0.00296 | 0.00324 | 0.00364 | 0.00447 | 0.00528
in ethanol | 0.00786 | 0.00861 | 0.00936 | 0.0102 | 0.0109 | 0.0125 | 0.0142 | 0.017 | 0.0206
